Columns and labels:
skin = assay: Test of skin irritation: continuous application test (Test Example 3 i); format: in vivo, human; conditions: 10 wt % ultraviolet absorbent, twice daily for 4 weeks
Description: The same samples as in the Test Example 2 were used (at a 10 wt % amount of an ultraviolet absorbent).
Continuous application test was carried out for 20 healthy subjects per one group. An appropriate amount of each of the samples was coated twice daily for 4 weeks. The effects were assessed according to the following assessment standards.
Mean score was calculated for the determination of the effect on the basis of the following standards.
◯: mean score of more than 0 to less than 1.
Δ: mean score of 1 or more to less than 2.
x: mean score of 2 or more.

[1] = Stability test in combination with inorganic powder-based ultraviolet shielding agent, sunscreen cream (Test Example 5); format: physicochemical; conditions: sunscreen cream with inorganic powders; ultraviolet absorbent 10.0 wt %; 50° C. for 2 months; visual observation
Description: A sunscreen cream of the following formulation was prepared and stored at 50° C. for 2 months. Under visual observation of the color change, the stability of the inventive pyridazine derivative in combination with inorganic powder-based ultraviolet screening agents commonly in blend as external preparations for skin for the purpose of ultraviolet prevention was examined.
After the ingredient 2 was added to the ingredient 1 to swell the ingredient 2, the ingredients 3 to 11 were mixed with the resulting mixture under heating, for sufficient dispersion and dissolution. While keeping the dispersion at 70° C., a solution of the mixture of the ingredients 12 to 15 was gradually added to the dispersion under thorough emulsification with a homomixer. The resulting mixture was cooled to 30° C. under sufficient stirring to prepare sunscreen creams.

| SMILES | Determination (skin reaction, continuous application test) (skin; cream) | Determination (skin reaction, continuous application test) (skin; lotion) | Color change [1] |
| --- | --- | --- | --- |
| Oc1nncc(N2CCCCC2)c1N1CCCCC1 [4,5-Dipiperidino-3-hydroxypyridazine] | ⊚ (mean score of 0) | ⊚ (mean score of 0) | no |
| Oc1cc(N2CCOCC2)cnn1 [3-Hydroxy-5-morpholinopyridazine, 3-hydroxy-5-morpholinopyridazine] | ⊚ (mean score of 0) | ⊚ (mean score of 0) | no |

Reference: patent publication US6676932B2, “Ultraviolet absorbent, photostabilizer, ultraviolet ray-absorbing composition, photostabilized composition and external preparation for skin” (Shiseido Co., Ltd., priority 2001, dated 2004)
